Assay results from PubChem BioAssay AID2060623 (Molecular Pharmacology Branch, DTP, NCI, 2025).

Test system: 227483-062-R1-J1-PDC complex spheroids with HUVEC/MSC, viability
Assay: Anticancer human tumor 227483-062-R1-J1-PDC patient-derived pancreatic carcinoma cell line growth inhibition [CLK]
Details: for IC50: curve of first compound; for viability, T/C: stronger effect = lower value
Outline: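 Patient-derived tumor cells grown as complex spheroids with HUVEC endothelial cells and mesenchymal stem cells, treated with drug combinations. Concentrations descend in half-log steps from near clinical Cmax, or from 10 microM if Cmax unknown.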
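Further: spheroids exposed to compounds for seven days before readout.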
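Wherever viability, T/C is given: percent of DMSO vehicle control luminescence as 100% viability.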

CC1COCCN1c1cc(C2(S(C)(=N)=O)CC2)nc(-c2ccnc3[nH]ccc23)n1 (centres undefined) + CNC(=O)c1ccc(Nc2nc(OC3CCCC3)c3c(-c4ccc5nc(C)oc5c4)c[nH]c3n2)c(OC)c1
IC50 (second compound 0.0316 µM): > 10 µM | IC50 (second compound 0.1 µM): > 10 µM | IC50 (second compound 0.316 µM): 7.13 µM | IC50 (second compound 1 µM): 1.38 µM | IC50 (second compound 3.16 µM): 0.237 µM | IC50 (second compound 10 µM): < 0.0316 µM | viability, T/C (second compound 0.0316 µM, first compound 0.0316 µM): 110% | viability, T/C (second compound 0.0316 µM, first compound 0.1 µM): 105% | viability, T/C (second compound 0.0316 µM, first compound 0.316 µM): 110% | viability, T/C (second compound 0.0316 µM, first compound 1 µM): 102% | viability, T/C (second compound 0.0316 µM, first compound 3.16 µM): 85.3% | viability, T/C (second compound 0.0316 µM, first compound 10 µM): 63.3% | viability, T/C (second compound 0.1 µM, first compound 0.0316 µM): 125% | viability, T/C (second compound 0.1 µM, first compound 0.1 µM): 108% | viability, T/C (second compound 0.1 µM, first compound 0.316 µM): 103% | viability, T/C (second compound 0.1 µM, first compound 1 µM): 108% | viability, T/C (second compound 0.1 µM, first compound 3.16 µM): 65% | viability, T/C (second compound 0.1 µM, first compound 10 µM): 62.3% | viability, T/C (second compound 0.316 µM, first compound 0.0316 µM): 96.4% | viability, T/C (second compound 0.316 µM, first compound 0.1 µM): 107% | viability, T/C (second compound 0.316 µM, first compound 0.316 µM): 92.9% | viability, T/C (second compound 0.316 µM, first compound 1 µM): 79.7% | viability, T/C (second compound 0.316 µM, first compound 3.16 µM): 64.1% | viability, T/C (second compound 0.316 µM, first compound 10 µM): 44.3% | viability, T/C (second compound 1 µM, first compound 0.0316 µM): 76.8% | viability, T/C (second compound 1 µM, first compound 0.1 µM): 68.9% | viability, T/C (second compound 1 µM, first compound 0.316 µM): 73.4% | viability, T/C (second compound 1 µM, first compound 1 µM): 53% | viability, T/C (second compound 1 µM, first compound 3.16 µM): 39.1% | viability, T/C (second compound 1 µM, first compound 10 µM): 30.6% | viability, T/C (second compound 3.16 µM, first compound 0.0316 µM): 59.7% | viability, T/C (second compound 3.16 µM, first compound 0.1 µM): 52.9% | viability, T/C (second compound 3.16 µM, first compound 0.316 µM): 48.1% | viability, T/C (second compound 3.16 µM, first compound 1 µM): 40.9% | viability, T/C (second compound 3.16 µM, first compound 3.16 µM): 33.9% | viability, T/C (second compound 3.16 µM, first compound 10 µM): 18.6% | viability, T/C (second compound 10 µM, first compound 0.0316 µM): 39.8% | viability, T/C (second compound 10 µM, first compound 0.1 µM): 34.6% | viability, T/C (second compound 10 µM, first compound 0.316 µM): 39.5% | viability, T/C (second compound 10 µM, first compound 1 µM): 32.5% | viability, T/C (second compound 10 µM, first compound 3.16 µM): 24.2% | viability, T/C (second compound 10 µM, first compound 10 µM): 14.5%

NC(=O)C(=Cn1cnc(-c2cc(C(F)(F)F)cc(C(F)(F)F)c2)n1)c1cncnc1 + CNC(=O)c1ccc(Nc2nc(OC3CCCC3)c3c(-c4ccc5nc(C)oc5c4)c[nH]c3n2)c(OC)c1
IC50 (second compound 0.0316 µM): 0.379 µM | IC50 (second compound 0.1 µM): 0.332 µM | IC50 (second compound 0.316 µM): 0.192 µM | IC50 (second compound 1 µM): 0.0318 µM | IC50 (second compound 3.16 µM): < 0.00949 µM | IC50 (second compound 10 µM): < 0.00949 µM | viability, T/C (second compound 0.0316 µM, first compound 0.00949 µM): 73.6% | viability, T/C (second compound 0.0316 µM, first compound 0.03 µM): 81.8% | viability, T/C (second compound 0.0316 µM, first compound 0.0949 µM): 73.2% | viability, T/C (second compound 0.0316 µM, first compound 0.3 µM): 53.4% | viability, T/C (second compound 0.0316 µM, first compound 0.949 µM): 29.8% | viability, T/C (second compound 0.0316 µM, first compound 3 µM): 9.82% | viability, T/C (second compound 0.1 µM, first compound 0.00949 µM): 86.3% | viability, T/C (second compound 0.1 µM, first compound 0.03 µM): 77.2% | viability, T/C (second compound 0.1 µM, first compound 0.0949 µM): 62.4% | viability, T/C (second compound 0.1 µM, first compound 0.3 µM): 60.7% | viability, T/C (second compound 0.1 µM, first compound 0.949 µM): 24.6% | viability, T/C (second compound 0.1 µM, first compound 3 µM): 5.03% | viability, T/C (second compound 0.316 µM, first compound 0.00949 µM): 61.4% | viability, T/C (second compound 0.316 µM, first compound 0.03 µM): 80.7% | viability, T/C (second compound 0.316 µM, first compound 0.0949 µM): 61.2% | viability, T/C (second compound 0.316 µM, first compound 0.3 µM): 41% | viability, T/C (second compound 0.316 µM, first compound 0.949 µM): 14.7% | viability, T/C (second compound 0.316 µM, first compound 3 µM): 2.56% | viability, T/C (second compound 1 µM, first compound 0.00949 µM): 46.4% | viability, T/C (second compound 1 µM, first compound 0.03 µM): 56.3% | viability, T/C (second compound 1 µM, first compound 0.0949 µM): 43.4% | viability, T/C (second compound 1 µM, first compound 0.3 µM): 25.6% | viability, T/C (second compound 1 µM, first compound 0.949 µM): 6.77% | viability, T/C (second compound 1 µM, first compound 3 µM): 2% | viability, T/C (second compound 3.16 µM, first compound 0.00949 µM): 43% | viability, T/C (second compound 3.16 µM, first compound 0.03 µM): 35.8% | viability, T/C (second compound 3.16 µM, first compound 0.0949 µM): 26.9% | viability, T/C (second compound 3.16 µM, first compound 0.3 µM): 11.7% | viability, T/C (second compound 3.16 µM, first compound 0.949 µM): 2.83% | viability, T/C (second compound 3.16 µM, first compound 3 µM): 2.08% | viability, T/C (second compound 10 µM, first compound 0.00949 µM): 40.6% | viability, T/C (second compound 10 µM, first compound 0.03 µM): 37.3% | viability, T/C (second compound 10 µM, first compound 0.0949 µM): 22% | viability, T/C (second compound 10 µM, first compound 0.3 µM): 7.23% | viability, T/C (second compound 10 µM, first compound 0.949 µM): 2.36% | viability, T/C (second compound 10 µM, first compound 3 µM): 1.41%
